Measured values: patent publication US12162884B2, “Solid forms of (R)-N-(2-(5-fluoropyridin-3-yl)-8-isopropylpyrazolo[1,5-a] [1,3,5]triazin-4-yl)-2,3,4,9-tetrahydro-1H-carbazol-3-amine as aryl hydrocarbon receptor (AHR) inhibitors” (Ikena Oncology, Inc., priority 2019, dated 2024)
Values after ≈ are worked out from the molar mass of the structure shown. Marks after values point to notes of the source that are not given here.

What was measured:
[1] = Solubility studies in water, FaSSIF, FeSSIF and FaSSGF (excess solids in 5 mL medium at 37° C., HPLC; pH, XRPD and NMR of remaining material); assay type: physicochemical; settings: for solubility at 30 min / solubility at 120 min / solubility at 24 h: 37 °C, thermodynamic from solid; for pH: pH of solubility sample; for Solubility / solubility at 24 hours in FeSSIF: 37° C.; for solubility at 24 hours in FeSSIF: comparison among the tested forms
Procedure: Simulated fluids were sourced from and prepared according to biorelevant.com using their FaSSIF/FeSSIF/FaSSGF Powder (v1, formerly known as SIF Powder). Samples were prepared by adding excess solids to 5 mL of medium at 37° C. Samples were pulled and filtered at 30 minutes, 120 minutes, and 24 hours and tested for solution concentration using the HPLC parameters described below in Table 13.
The pH of the samples at each timepoint was also measured; pH paper was used at 30 minutes and 120 minutes due to the small sample size, and a pH meter was used at 24 hours. The remaining material from all trials was analyzed by XRPD after 24 hours to determine if any polymorphic form changes had taken place. The remaining material from trials in water was analyzed by NMR after 24 hours to determine if disassociation had taken place.

[2] = Stability studies at 40° C./75% RH (HPLC); assay type: physicochemical; settings: for stability / degradation over time: Time 0, 1 week, 2 weeks, 4 weeks
Procedure: Stability studies of compound A, Form B, Compound 1, Form B, Compound 2, Form A, Compound 3, Form B, and Compound 4, Form A was carried out at 40° C./75% RH. Samples were stored in loosely capped vials in a chamber containing a saturated NaCl solution to achieve approximately 75% RH within the chamber. The chamber was stored in a 40° C. oven. Samples were analyzed at Time 0, 1 week, 2 weeks, and 4 weeks using the HPLC parameters described above in Table 13.

[3] = FaSSGF, fassgf or other biorelevant, 30 minutes
[4] = FaSSGF, fassgf or other biorelevant, 120 minutes
[5] = FaSSGF, fassgf or other biorelevant, 24 hours

SMILES	solubility at 30 min [1, 3] [µg/mL]	solubility at 120 min [1, 4] [µg/mL]	solubility at 24 h [1, 5] [µg/mL]	pH ([1]; FaSSGF, 30 minutes, pH paper)	pH ([1]; FaSSGF, 120 minutes, pH paper)	pH ([1]; FaSSGF, 24 hours, pH meter)	pH ([1]; FaSSIF, 30 minutes, pH paper)	pH ([1]; FaSSIF, 120 minutes, pH paper)	pH ([1]; FaSSIF, 24 hours, pH meter)	pH ([1]; FeSSIF, 30 minutes, pH paper)	pH ([1]; FeSSIF, 120 minutes, pH paper)	pH ([1]; FeSSIF, 24 hours, pH meter)	pH ([1]; Water, 30 minutes, pH paper)	pH ([1]; Water, 120 minutes, pH paper)	pH ([1]; Water, 24 hours, pH meter)	% Area ([2]; 1 Week, HPLC) [% Area]	% Area ([2]; 2 Weeks, HPLC) [% Area]	% Area ([2]; 4 Weeks, HPLC) [% Area]	stability / degradation over time ([2]; HPLC)	% Area ([2]; Time 0, HPLC) [% Area]	further results
CC(C)c1cnn2c(N[C@@H]3CCc4[nH]c5ccccc5c4C3)nc(-c3cncc(F)c3)nc12.CCS(=O)(=O)O [Compound 1 Form B]	< 0.1	< 0.1	< 0.1	1.5	1.5	1.2	6	6	6.2	5	5	4.8	4.5	4.5	3.4	99.59	99.53	99.46	equally stable	99.90	solubility at 30 min ([1]; FaSSIF, 30 minutes): 45 µg/mL; solubility at 120 min ([1]; FaSSIF, 120 minutes): 34 µg/mL; solubility at 24 h ([1]; FaSSIF, 24 hours): 18 µg/mL; solubility at 30 min ([1]; FeSSIF, 30 minutes): 58 µg/mL; solubility at 120 min ([1]; FeSSIF, 120 minutes): 56 µg/mL; solubility at 24 h ([1]; FeSSIF, 24 hours): 63 µg/mL; solubility at 30 min ([1]; water, 30 minutes): < 0.1 µg/mL; solubility at 120 min ([1]; water, 120 minutes): < 0.1 µg/mL; solubility at 24 h ([1]; water, 24 hours): < 0.1 µg/mL
CC(C)c1cnn2c(N[C@@H]3CCc4[nH]c5ccccc5c4C3)nc(-c3cncc(F)c3)nc12 [Compound 2 Form A]	< 0.1	< 0.1	< 0.1			1.2	6	6	5.0	5	5	4.7	3.5	4	2.9	99.20	98.30	98.58	fairly stable	99.87	Solubility ([1]; FaSSIF, 30 minutes): 78 µg/mL (≈ 177 µM); Solubility ([1]; FaSSIF, 120 minutes): 40 µg/mL (≈ 90.6 µM); Solubility ([1]; FaSSIF, 24 hours): 14 µg/mL (≈ 31.7 µM); Solubility ([1]; FeSSIF, 30 minutes): 58 µg/mL (≈ 131 µM); Solubility ([1]; FeSSIF, 120 minutes): 160 µg/mL (≈ 362 µM); Solubility ([1]; FeSSIF, 24 hours): 120 µg/mL (≈ 272 µM); solubility at 24 hours in FeSSIF ([1]; FeSSIF, 24 hours): highest solubility; solubility at 30 min ([1]; water, 30 minutes): < 0.1 µg/mL; solubility at 120 min ([1]; water, 120 minutes): < 0.1 µg/mL; solubility at 24 h ([1]; water, 24 hours): < 0.1 µg/mL; loss of area over four weeks ([2]; four weeks, HPLC): ~1.5 % area
CC(C)c1cnn2c(N[C@@H]3CCc4[nH]c5ccccc5c4C3)nc(-c3cncc(F)c3)nc12.CS(=O)(=O)O [Compound 3 Form B]	< 0.1	< 0.1	< 0.1	1.5	1.5	1.2	6	6	5.7	5	5	4.4	4	4	2.4	91.60	69.61	16.23	significant degradation was observed over time	99.88	solubility at 30 min ([1]; FaSSIF, 30 minutes): 65 µg/mL; solubility at 120 min ([1]; FaSSIF, 120 minutes): 34 µg/mL; solubility at 24 h ([1]; FaSSIF, 24 hours): 16 µg/mL; solubility at 24 hours in FeSSIF ([1]; FeSSIF, 24 hours): highest solubility; solubility at 30 min ([1]; FeSSIF, 30 minutes): 27 µg/mL; solubility at 120 min ([1]; FeSSIF, 120 minutes): 43 µg/mL; solubility at 24 h ([1]; FeSSIF, 24 hours): 160 µg/mL; solubility at 30 min ([1]; water, 30 minutes): < 0.1 µg/mL; solubility at 120 min ([1]; water, 120 minutes): < 0.1 µg/mL; solubility at 24 h ([1]; water, 24 hours): < 0.1 µg/mL; solid state of the solids at the end of the study ([2]; end of the study): lost all crystallinity and became x-ray amorphous
CC(C)c1cnn2c(N[C@@H]3CCc4[nH]c5ccccc5c4C3)nc(-c3cncc(F)c3)nc12 [Compound 4 Form A]				1.5	1.5	1.1	6	5.5	1.9	5	4.5	4.4	4.5	3	1.5	94.31	94.20	99.37	exhibited degradation at 1 and 2 weeks, but the degradant peaks were no longer present at 4 weeks	99.77	Solubility ([1]; FaSSGF, 30 minutes): <0.1 µg/mL; Solubility ([1]; FaSSGF, 120 minutes): <0.1 µg/mL; Solubility ([1]; FaSSGF, 24 hours): <0.1 µg/mL; Solubility ([1]; FaSSIF, 30 minutes): 71 µg/mL (≈ 161 µM); Solubility ([1]; FaSSIF, 120 minutes): 38 µg/mL (≈ 86.1 µM); Solubility ([1]; FaSSIF, 24 hours): 25 µg/mL (≈ 56.6 µM); Solubility ([1]; FeSSIF, 30 minutes): 48 µg/mL (≈ 109 µM); Solubility ([1]; FeSSIF, 120 minutes): 110 µg/mL (≈ 249 µM); Solubility ([1]; FeSSIF, 24 hours): 33 µg/mL (≈ 74.7 µM); Solubility ([1]; Water, 30 minutes): <0.1 µg/mL; Solubility ([1]; Water, 120 minutes): <0.1 µg/mL; Solubility ([1]; Water, 24 hours): <0.1 µg/mL
CC(C)c1cnn2c(N[C@@H]3CCc4[nH]c5ccccc5c4C3)nc(-c3cncc(F)c3)nc12 [Compound A Form B, (3R)—N-[2-(5-fluoro-3-pyridyl)-8-isopropyl-pyrazolo[1,5-a][1,3,5]triazin-4-yl]-2,3,4,9-tetrahydro-1H-carbazol-3-amine]							6	6	6.4	5	5	4.8		4.5	7.7	99.22	99.05	99.58	equally stable		Solubility ([1]; FaSSGF, 30 minutes): <0.1 µg/mL; Solubility ([1]; FaSSGF, 120 minutes): <0.1 µg/mL; Solubility ([1]; FaSSGF, 24 hours): <0.1 µg/mL; Solubility ([1]; FaSSIF, 30 minutes): 4.9 µg/mL (≈ 11.1 µM); Solubility ([1]; FaSSIF, 120 minutes): 11 µg/mL (≈ 24.9 µM); Solubility ([1]; FaSSIF, 24 hours): 9.5 µg/mL (≈ 21.5 µM); Solubility ([1]; FeSSIF, 30 minutes): <0.1 µg/mL; Solubility ([1]; FeSSIF, 120 minutes): 27 µg/mL (≈ 61.2 µM); Solubility ([1]; FeSSIF, 24 hours): 21 µg/mL (≈ 47.6 µM); Solubility ([1]; Water, 30 minutes): <0.1 µg/mL; Solubility ([1]; Water, 120 minutes): <0.1 µg/mL; Solubility ([1]; Water, 24 hours): <0.1 µg/mL; % Area ([2]; Time 0, HPLC, 1 mg/mL): 99.62* % Area
